Consider 17 molecules from ChEMBL document CHEMBL1151168, “Cytotoxic sterols and saponins from the starfish Certonardoa semiregularis” (2004).

Common to all, as to type: functional
Settings in all cases: read-out: ED50 (the source's name)

One assay has as its system HCT-15. Put plainly: Cytotoxicity against human HCT15 cells.
In a further assay the test system is A549. Put plainly: Cytotoxicity against human A549 cells.
Another assay relates to SK-OV-3. Briefly: Cytotoxicity against human SKOV3 cells.
A further assay deals with XF498. Briefly: Cytotoxicity against human XF498 cells.
Another assay has as its system SK-MEL-2. Put plainly: Cytotoxicity against human SK-MEL-2 cells.

In brackets after ≈: the same amount, converted by molar mass.

Regarding `CC(C)[C@@H](CCO)CC[C@@H](C)[C@H]1[C@@H](O)[C@@H](O)[C@H]2[C@@H]3C[C@H](O)[C@H]4C[C@@H](O)CC[C@]4(C)[C@H]3CC[C@]12C` [CERTONARDOSTEROL N1], the EC50 in the assay with HCT-15 was 1.25 µg/mL (≈ 2.6 µM); in the assay on A549, 0.82 µg/mL (≈ 1.71 µM); with SK-OV-3, 0.9 µg/mL (≈ 1.87 µM); in the assay on XF498 it was 0.43 µg/mL (≈ 0.894 µM); with SK-MEL-2, 0.4 µg/mL (≈ 0.832 µM).
`CC(C)[C@@H](CCO)CC[C@@H](C)[C@H]1[C@@H](O)[C@@H](O)[C@@H]2[C@]1(C)CC[C@@H]1[C@@]3(C)CC[C@H](O)[C@H](O)[C@@H]3[C@@H](O)C[C@]12O` [CERTONARDOSTEROL P1]: the EC50 in the assay on HCT-15 is 4.39 µg/mL (≈ 8.56 µM); in the assay with A549, 3.3 µg/mL (≈ 6.44 µM); in the assay on SK-OV-3, 3.5 µg/mL (≈ 6.83 µM); in the assay on XF498 it was 3.48 µg/mL (≈ 6.79 µM); in the assay with SK-MEL-2, 2.5 µg/mL (≈ 4.88 µM).
In the same order, the values of `CO[C@@H]1CO[C@@H](OCC[C@@H](CC[C@@H](C)[C@H]2[C@@H](O)[C@@H](O)[C@@H]3[C@]2(C)CC[C@@H]2[C@@]4(C)CC[C@H](O)[C@H](O)[C@@H]4[C@@H](O)C[C@]23O)C(C)C)[C@H](O)[C@H]1O` [CERTONARDOSIDE I2] are 8.32 µg/mL (≈ 12.6 µM), 4.26 µg/mL (≈ 6.47 µM), 3.06 µg/mL (≈ 4.64 µM), 3.69 µg/mL (≈ 5.6 µM) and 2.39 µg/mL (≈ 3.63 µM).
In the case of `CO[C@@H]1CO[C@@H](OCC[C@@H](CC[C@@H](C)[C@H]2[C@@H](O)[C@@H](O)[C@H]3[C@@H]4C[C@H](O)[C@H]5[C@@H](O)[C@@H](O)CC[C@]5(C)[C@H]4CC[C@]23C)C(C)C)[C@H](O)[C@H]1O` [CERTONARDOSIDE J2], the EC50 with HCT-15 stood at 8.2 µg/mL (≈ 12.8 µM); in the assay on A549, 3.41 µg/mL (≈ 5.3 µM); with SK-OV-3, 3.29 µg/mL (≈ 5.12 µM); with XF498 it was 3.53 µg/mL (≈ 5.49 µM); in the assay with SK-MEL-2, 2.36 µg/mL (≈ 3.67 µM).
The matching figures for `CC(C)[C@H](/C=C/[C@@H](C)[C@H]1C[C@@H](O)[C@H]2[C@@H]3C[C@H](O)[C@H]4C[C@@H](O)CC[C@]4(C)[C@H]3CC[C@@]21C)CO` [CERTONARDOSTEROL D2]: 0.01 µg/mL (≈ 0.0223 µM), 0.15 µg/mL (≈ 0.334 µM), 0.08 µg/mL (≈ 0.178 µM), 0.07 µg/mL (≈ 0.156 µM) and 0.09 µg/mL (≈ 0.201 µM).
As to `C[C@H](/C=C/[C@@H](C)[C@H]1CC(O)[C@H]2[C@@H]3CC(O)[C@H]4C[C@@H](O)CC[C@]4(C)[C@H]3CC[C@]12C)[C@H](C)CO` (single isomer, unassigned) [CERTONARDOSTEROL E3], the EC50 in the assay with HCT-15 worked out at 0.73 µg/mL (≈ 1.63 µM); in the assay with A549 it was 0.54 µg/mL (≈ 1.2 µM); in the assay on SK-OV-3, 0.69 µg/mL (≈ 1.54 µM); in the assay with XF498 it was 0.33 µg/mL (≈ 0.735 µM); in the assay with SK-MEL-2 it was 0.4 µg/mL (≈ 0.891 µM).
The matching figures for `COc1cccc2c1C(=O)c1c(O)c3c(c(O)c1C2=O)C[C@@](O)(C(=O)CO)C[C@@H]3O[C@H]1C[C@H](N)[C@H](O)[C@H](C)O1` [DOXORUBICIN]: 0.06 µg/mL (≈ 0.11 µM), 0.01 µg/mL (≈ 0.0184 µM), 0.08 µg/mL (≈ 0.147 µM), 0.06 µg/mL (≈ 0.11 µM) and 0.02 µg/mL (≈ 0.0368 µM).
For the molecule `CO[C@@H]1CO[C@@H](OCC[C@@H](CC[C@@H](C)[C@H]2[C@@H](O)[C@@H](O)[C@H]3[C@@H]4C[C@H](O)[C@H]5C[C@@H](O)CC[C@]5(C)[C@H]4CC[C@]23C)C(C)C)[C@H](O)[C@H]1O` [CERTONARDOSIDE O1], the EC50 in the assay with HCT-15 came out at 2.28 µg/mL (≈ 3.64 µM); with A549, 1.25 µg/mL (≈ 1.99 µM); with SK-OV-3, 2 µg/mL (≈ 3.19 µM); in the assay with XF498, 0.74 µg/mL (≈ 1.18 µM); with SK-MEL-2 it was 0.68 µg/mL (≈ 1.08 µM).
In the same order, the values of `CC(C)[C@@H](CCO)CC[C@@H](C)[C@H]1C[C@H](O)[C@H]2[C@@H]3C[C@@H](O)[C@H]4C[C@@H](O)CC[C@]4(C)[C@H]3CC[C@@]21C` [CERTONARDOSTEROL E2] are 1.26 µg/mL (≈ 2.71 µM), 0.48 µg/mL (≈ 1.03 µM), 0.83 µg/mL (≈ 1.79 µM), 0.4 µg/mL (≈ 0.861 µM) and 0.28 µg/mL (≈ 0.602 µM).
The matching figures for `CC(C)[C@@H](CCO)CC[C@@H](C)[C@H]1C[C@@H](O)[C@H]2[C@@H]3C[C@H](O)[C@H]4C[C@@H](O)CC[C@]4(C)[C@H]3CC[C@@]21C` [CERTONARDOSTEROL D3]: 2.48 µg/mL (≈ 5.34 µM), 1.36 µg/mL (≈ 2.93 µM), 1.33 µg/mL (≈ 2.86 µM), 0.84 µg/mL (≈ 1.81 µM) and 0.68 µg/mL (≈ 1.46 µM).
Consider `CC(C)[C@@H](CCO)CC[C@@H](C)[C@H]1[C@@H](O)[C@@H](O)[C@@H]2[C@]1(C)CC[C@@H]1[C@@]3(C)CC[C@H](O)C[C@@H]3[C@@H](O)C[C@]12O` [CERTONARDOSTEROL O1], for which the EC50 in the assay on HCT-15 amounted to 17.7 µg/mL (≈ 35.6 µM); in the assay with A549 it was 8.32 µg/mL (≈ 16.7 µM); in the assay with SK-OV-3, 6.59 µg/mL (≈ 13.3 µM); in the assay with XF498, 6.92 µg/mL (≈ 13.9 µM); in the assay with SK-MEL-2, 5.32 µg/mL (≈ 10.7 µM).
`C[C@H](/C=C/[C@@H](C)[C@H]1C[C@@H](O)[C@@H]2[C@]1(C)CC[C@@H]1[C@@]3(C)CC[C@H](O)[C@H](O)[C@@H]3[C@@H](O)C[C@]12O)[C@H](C)CO` [CERTONARDOSTEROL A2]: the EC50 in the assay with HCT-15 was 2.54 µg/mL (≈ 5.28 µM); with A549 it was 1.75 µg/mL (≈ 3.64 µM); in the assay with SK-OV-3 it was 1.13 µg/mL (≈ 2.35 µM); with XF498, 0.89 µg/mL (≈ 1.85 µM); in the assay on SK-MEL-2, 0.67 µg/mL (≈ 1.39 µM).
With `C[C@H](/C=C/[C@@H](C)[C@H]1C[C@@H](O)[C@H]2[C@@H]3C[C@H](O)[C@H]4[C@@H](O)[C@@H](O)CC[C@]4(C)[C@H]3CC[C@@]21C)[C@H](C)CO` [CERTONARDOSTEROL B2], the EC50 with HCT-15 worked out at 2.71 µg/mL (≈ 5.83 µM); in the assay with A549 it was 2.33 µg/mL (≈ 5.01 µM); with SK-OV-3, 2.64 µg/mL (≈ 5.68 µM); in the assay with XF498, 2.21 µg/mL (≈ 4.76 µM); in the assay on SK-MEL-2, 2.23 µg/mL (≈ 4.8 µM).
The matching figures for `C[C@H](/C=C/[C@@H](C)[C@H]1C[C@@H](O)[C@H]2[C@@H]3C[C@H](O)[C@H]4C[C@@H](O)CC[C@]4(C)[C@H]3CC[C@@]21C)[C@H](C)CO` [CERTONARDOSTEROL D4]: 1.25 µg/mL (≈ 2.79 µM), 1.75 µg/mL (≈ 3.9 µM), 1.51 µg/mL (≈ 3.37 µM), 1.22 µg/mL (≈ 2.72 µM) and 0.48 µg/mL (≈ 1.07 µM).
Regarding `CO[C@@H]1CO[C@@H](OCC[C@@H](/C=C/[C@@H](C)[C@H]2[C@@H](O)[C@@H](O)[C@H]3[C@@H]4C[C@H](O)[C@H]5[C@@H](O)[C@@H](O)CC[C@]5(C)[C@H]4CC[C@]23C)C(C)C)[C@H](O)[C@H]1O` [CERTONARDOSIDE J3], the EC50 came out at 2.76 µg/mL (≈ 4.31 µM) in the assay with HCT-15; 0.83 µg/mL (≈ 1.3 µM) in the assay with A549; 0.74 µg/mL (≈ 1.15 µM) in the assay on SK-OV-3; 0.45 µg/mL (≈ 0.702 µM) with XF498; 0.3 µg/mL (≈ 0.468 µM) in the assay with SK-MEL-2.
Consider `CO[C@@H]1CO[C@@H](OCC[C@@H](CC[C@@H](C)[C@H]2[C@@H](O)[C@@H](O)[C@@H]3[C@]2(C)CC[C@@H]2[C@@]4(C)CC[C@H](O)C[C@@H]4[C@@H](O)C[C@]23O)C(C)C)[C@H](O)[C@H]1O` [CERTONARDOSIDE P1], for which the EC50 in the assay with HCT-15 is 2.17 µg/mL (≈ 3.38 µM); in the assay on A549 it was 0.87 µg/mL (≈ 1.35 µM); in the assay on SK-OV-3, 0.89 µg/mL (≈ 1.38 µM); in the assay with XF498, 0.35 µg/mL (≈ 0.544 µM); in the assay with SK-MEL-2, 0.26 µg/mL (≈ 0.404 µM).
In the case of `C[C@H](/C=C/[C@@H](C)[C@H]1C[C@@H](O)[C@@H]2[C@]1(C)CC[C@@H]1[C@@]3(C)CC[C@H](O)C[C@@H]3[C@@H](O)C[C@]12O)[C@H](C)CO` [CERTONARDOSTEROL C2], the EC50 in the assay on HCT-15 is 0.25 µg/mL (≈ 0.538 µM); with A549, 0.15 µg/mL (≈ 0.323 µM); in the assay with SK-OV-3 it was 0.16 µg/mL (≈ 0.344 µM); with XF498, 0.08 µg/mL (≈ 0.172 µM); in the assay on SK-MEL-2, under 0.1 µg/mL.
